Data as given in DBAASP.
Values after ≈ are worked out from the molar mass of the structure shown.

Assays:
Experiment in all cases: ≥ marks a high value that may be exact or a test limit, other limits are often not marked, values filed in µg/mL are converted to µM
[1] = system: Pseudomonas aeruginosa ATCC BAA-427
[2] = system: Bacillus subtilis ATCC 6633
[3] = system: Klebsiella pneumoniae ATCC 27736
[4] = system: Staphylococcus aureus SA113
[5] = system: Salmonella enterica subsp. enterica serovar Typhimurium LT2
[6] = system: Klebsiella pneumoniae NCIMB 13218
[7] = system: Cronobacter sakazakii DSM 4485
[8] = system: Escherichia coli NCIMB 11843
[9] = system: Staphylococcus aureus RF122
[10] = system: Cronobacter sakazakii DPC 6440
[11] = system: Staphylococcus aureus Newman
[12] = system: Cronobacter sakazakii ATCC BAA-894
[13] = system: Cronobacter muytjensii ATCC 51329
[14] = system: Staphylococcus aureus RN4220
[15] = system: Pseudomonas fluorescens NCIMB 9046
[16] = system: Staphylococcus aureus NCTC 8325-4
[17] = system: Pseudomonas aeruginosa 253
[18] = system: Pseudomonas aeruginosa PAO1
[19] = system: Pseudomonas aeruginosa 910
[20] = system: Pseudomonas aeruginosa 919
Staphylococcus xylosus = system: Staphylococcus xylosus
[21] = system: Escherichia coli DH5alpha
[22] = system: Bacillus subtilis KCTC 1918
[23] = system: Trichosporon beigelii KCTC 7707
[24] = system: Candida albicans TIMM 1768
[25] = system: Pseudomonas aeruginosa KCTC 1637
[26] = system: Escherichia coli KCTC 1682
[27] = system: Staphylococcus aureus KCTC 1621
[28] = system: Salmonella typhimurium KCTC 1926
[29] = system: Escherichia coli ATCC 25922
[30] = system: Candida albicans ATCC 37092
[31] = system: Staphylococcus aureus ATCC 29213
[32] = system: Staphylococcus aureus ATCC 9144
Escherichia coli HB101 = system: Escherichia coli HB101
[33] = system: Pseudomonas aeruginosa ATCC 27853
[34] = system: Corynebacterium glutamicum ATCC 13032

`CC[C@H](C)[C@H](NC(=O)CNC(=O)[C@H](CCCN=C(N)N)NC(=O)[C@H](C)NC(=O)[C@H](Cc1ccccc1)NC(=O)[C@H](Cc1cnc[nH]1)NC(=O)[C@H](Cc1cnc[nH]1)NC(=O)[C@H](Cc1ccccc1)NC(=O)[C@@H](N)Cc1ccccc1)C(=O)N[C@H](C(=O)N[C@@H](Cc1cnc[nH]1)C(=O)N[C@H](C(=O)NCC(=O)N[C@@H](CCCCN)C(=O)N[C@H](C(=O)N[C@H](C(=O)N[C@@H](Cc1cnc[nH]1)C(=O)N[C@@H](CCCN=C(N)N)C(=O)N[C@@H](CC(C)C)C(=O)N[C@H](C(=O)N[C@H](C(=O)NCC(N)=O)[C@@H](C)O)C(C)C)[C@@H](C)CC)[C@@H](C)O)C(C)C)C(C)C` [FFHHFARGIVHVGKTIHRLVTG] gave an MIC [1] of 24 µM (≈ 60.7 µg/mL), an MIC [2] of 16 µM (≈ 40.5 µg/mL) and an MIC [3] of 12 µM (≈ 30.3 µg/mL).
`CC[C@H](C)[C@H](N)C(=O)N[C@@H](CCCCN)C(=O)N[C@@H](Cc1cnc[nH]1)C(=O)N[C@@H](CCC(N)=O)C(=O)NCC(=O)N[C@@H](CC(C)C)C(=O)N1CCC[C@H]1C(=O)N[C@@H](CCC(N)=O)C(=O)N[C@@H](C)C(=O)O` [IKHQGLPQA] gave an MIC [4] of at least 2500 µM, an MIC [5] of at least 2500 µM and an MIC [6] of at least 2500 µM. The MIC [7] was at least 2500 µM, the MIC [8] was at least 2500 µM and the MIC [9] was at least 625 µM. The MIC [10] was at least 625 µM, the MIC [11] was at least 2500 µM and the MIC [12] was at least 1250 µM. The MIC [13] was at least 2500 µM, the MIC [14] was at least 625 µM and the MIC [15] was at least 2500 µM. The MIC [16] was at least 2500 µM.
`CC[C@H](C)[C@H](N)C(=O)N[C@@H](CCCCN)C(=O)N[C@@H](Cc1cnc[nH]1)C(=O)N[C@@H](CCC(N)=O)C(=O)NCC(=O)N[C@@H](CCCN=C(N)N)C(=O)N1CCC[C@H]1C(=O)N[C@@H](CCC(N)=O)C(=O)N[C@@H](CCC(=O)O)C(=O)O` [IKHQGRPQE] gave an MIC [4] of at least 2500 µM, an MIC [5] of at least 2500 µM and an MIC [6] of at least 2500 µM. The MIC [7] was at least 2500 µM, the MIC [8] was at least 2500 µM and the MIC [9] was at least 2500 µM. The MIC [10] was at least 2500 µM, the MIC [11] was at least 2500 µM and the MIC [12] was at least 2500 µM. The MIC [13] was at least 2500 µM, the MIC [14] was at least 2500 µM and the MIC [15] was at least 2500 µM. For the same molecule, the MIC [16] was at least 2500 µM.
In the case of `CC[C@H](C)[C@H](N)C(=O)N[C@@H](CC(C)C)C(=O)N[C@@H](CCCCN)C(=O)N[C@@H](Cc1c[nH]c2ccccc12)C(=O)N[C@@H](CCCCN)C(=O)N[C@@H](CCSC)C(=O)N[C@@H](Cc1ccccc1)C(=O)N[C@@H](CCCCN)C(=O)N[C@@H](Cc1c[nH]c2ccccc12)C(=O)N[C@@H](CCCCN)C(=O)N[C@@H](Cc1c[nH]c2ccccc12)C(=O)N[C@@H](Cc1ccccc1)C(=O)N[C@@H](CCCN=C(N)N)C(N)=O` [ILKWKMFKWKWFR], the MIC [17] is reported as 16 µM (≈ 30.3 µg/mL), the MIC [18] is reported as 2 µM (≈ 3.79 µg/mL) and the MIC [19] is reported as 4 µM (≈ 7.59 µg/mL). The MIC [20] was 16 µM (≈ 30.3 µg/mL).
`NCCCC[C@H](NC(=O)[C@H](CCCN=C(N)N)NC(=O)[C@H](CCCCN)NC(=O)[C@H](CCCCN)NC(=O)[C@H](CCCN=C(N)N)NC(=O)[C@@H](N)CCCCN)C(=O)O` [KRKKRK] showed an MIC (Staphylococcus xylosus) of 16 µM (≈ 13.5 µg/mL) and an MIC [21] of at least 64 µM.
`CC(C)C[C@H](NC(=O)[C@H](CCCCN)NC(=O)[C@H](CCCCN)NC(=O)[C@H](CC(C)C)NC(=O)[C@H](CC(C)C)NC(=O)[C@H](CCCCN)NC(=O)[C@H](CCCCN)NC(=O)[C@H](CC(C)C)NC(=O)[C@H](CC(C)C)NC(=O)[C@@H]1CCCN1C(=O)[C@H](CCCCN)NC(=O)[C@H](CCCCN)NC(=O)[C@H](Cc1c[nH]c2ccccc12)NC(=O)[C@@H](N)CCCCN)C(N)=O` [KWKKPLLKKLLKKL] gave an MIC [22] of 3.12 µM (≈ 5.5 µg/mL), an MIC [23] of 1.56 µM (≈ 2.75 µg/mL) and an MIC [24] of 12.5 µM (≈ 22 µg/mL). For the same molecule, the MIC [25] was 3.12 µM (≈ 5.5 µg/mL), the MIC [26] was 6.25 µM (≈ 11 µg/mL) and the MIC [27] was 6.25 µM (≈ 11 µg/mL). It also gave an MIC [28] of 1.56 µM (≈ 2.75 µg/mL).
In the case of `CC(C)C[C@H](NC(=O)[C@H](CCCN=C(N)N)NC(=O)[C@@H]1CCCN1C(=O)[C@@H]1CCCN1C(=O)[C@H](CCCN=C(N)N)NC(=O)[C@@H]1CCCN1)C(=O)N1CCC[C@H]1C(=O)N[C@@H](CCCN=C(N)N)C(=O)N1CCC[C@H]1C(=O)N[C@@H](CCCN=C(N)N)C(=O)N1CCC[C@H]1C(=O)N[C@@H](CCCN=C(N)N)C(=O)N1CCC[C@H]1C(=O)N[C@@H](CC(C)C)C(=O)N1CCC[C@H]1C(=O)N[C@@H](Cc1ccccc1)C(=O)N1CCC[C@H]1C(=O)N[C@@H](CCCN=C(N)N)C(=O)N1CCC[C@H]1C(=O)NCC(=O)O` [PRPPRLPRPRPRPLPFPRPG], the MIC [29] is reported as 18.1 µM (≈ 42.7 µg/mL), the MIC [30] is reported as 17.6 µM (≈ 41.5 µg/mL) and the MIC [31] is reported as over 500 µM.
Molecule `CC[C@H](C)[C@H](NC(=O)[C@H](CC(C)C)NC(=O)[C@@H](NC(=O)[C@H](CC(C)C)NC(=O)[C@@H](NC(=O)[C@H](CCCCN)NC(=O)[C@@H](N)CCCN=C(N)N)[C@@H](C)CC)[C@@H](C)CC)C(=O)N[C@@H](CCCCN)C(=O)N[C@@H](CCCN=C(N)N)C(=O)N[C@@H](CCCCN)C(=O)O` [RKILILIKRK] has an MIC (Staphylococcus xylosus) of 4 µM (≈ 5.12 µg/mL) and an MIC [21] of 16 µM (≈ 20.5 µg/mL).
In the case of `CC[C@H](C)[C@H](NC(=O)[C@@H](NC(=O)[C@H](CCCN=C(N)N)NC(=O)[C@H](Cc1c[nH]c2ccccc12)NC(=O)[C@H](CCCN=C(N)N)NC(=O)[C@@H](N)CCCN=C(N)N)C(C)C)C(=O)N[C@H](C(=O)N[C@@H](CCCCN)C(=O)N[C@@H](Cc1c[nH]c2ccccc12)C(N)=O)C(C)C` [RRWRVIVKW], the MIC [17] is reported as 8 µM (≈ 10.4 µg/mL), the MIC [18] is reported as 4 µM (≈ 5.19 µg/mL) and the MIC [19] is reported as 4 µM (≈ 5.19 µg/mL). For the same molecule, the MIC [20] was 4 µM (≈ 5.19 µg/mL).
`CC[C@H](C)[C@H](NC(=O)[C@@H]1CCCN1C(=O)[C@H](CCCCN)NC(=O)[C@@H]1CCCN1C(=O)[C@H](CCCN=C(N)N)NC(=O)CNC(=O)[C@@H]1CCCN1C(=O)[C@H](Cc1ccccc1)NC(=O)[C@@H]1CCCN1C(=O)[C@H](CCCN=C(N)N)NC(=O)[C@@H]1CCCN1C(=O)[C@H](CCCN=C(N)N)NC(=O)CNC(=O)[C@@H]1CCCN1C(=O)[C@H](CO)NC(=O)[C@@H]1CCCN1C(=O)[C@H](Cc1c[nH]c2ccccc12)NC(=O)[C@H](CCCN=C(N)N)NC(=O)[C@@H](N)CO)C(=O)N[C@@H](Cc1ccccc1)C(=O)O` [SRWPSPGRPRPFPGRPKPIF] was tested, and the MIC [29] was over 100 µM, the MIC [32] was at least 100 µM and the MIC (Escherichia coli HB101) was at least 35.4 µM. For the same molecule, the MIC [33] was over 100 µM and the MIC [34] was 17.7 µM (≈ 41.2 µg/mL).
For `CC(C)C[C@H](NC(=O)[C@H](CC(C)C)NC(=O)[C@H](CC(N)=O)NC(=O)[C@H](CC(N)=O)NC(=O)[C@H](CC(C)C)NC(=O)[C@@H](N)C(C)C)C(=O)N[C@@H](CCCN=C(N)N)C(=O)O` [VLNNLLR], the MIC [4] was at least 312 µM, the MIC [5] was at least 1250 µM and the MIC [6] was at least 1250 µM. The MIC [7] was at least 2500 µM, the MIC [8] was at least 2500 µM and the MIC [9] was at least 1250 µM. The MIC [10] was at least 625 µM, the MIC [11] was at least 1250 µM and the MIC [12] was at least 1250 µM. The MIC [33] was 64 µM (≈ 53.8 µg/mL), the MIC [13] was at least 1250 µM and the MIC [14] was at least 1250 µM. For the same molecule, the MIC [15] was at least 2500 µM and the MIC [16] was at least 312 µM.
